The values that follow come from paper PMC12136037, “Type II kinase inhibitors that target Parkinson’s disease–associated LRRK2” (Science Advances, 2025).

What all share (assay): DSF 100 kinase selectivity screen;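 note: compound tested at 20 µM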
Assay type in all cases: binding

The target in test [1] is T1, ~100 representative kinases (Homo sapiens, UniProt O15264).
T1 construct: Recombinant protein kinase domains with a concentration of 2 μM
T1 sequence (O15264 1-365): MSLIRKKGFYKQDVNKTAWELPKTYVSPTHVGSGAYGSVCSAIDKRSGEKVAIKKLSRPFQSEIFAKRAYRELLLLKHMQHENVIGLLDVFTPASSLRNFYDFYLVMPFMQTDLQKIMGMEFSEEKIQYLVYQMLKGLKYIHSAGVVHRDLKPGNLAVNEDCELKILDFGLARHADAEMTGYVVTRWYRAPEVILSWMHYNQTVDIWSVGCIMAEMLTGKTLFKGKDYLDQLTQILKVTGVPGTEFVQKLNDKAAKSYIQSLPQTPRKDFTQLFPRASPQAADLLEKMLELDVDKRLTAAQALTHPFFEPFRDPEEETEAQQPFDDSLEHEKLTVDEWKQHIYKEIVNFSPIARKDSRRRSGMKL
The settings on record: protein MAPK13; average of three replicates. The method, boiled down: (§1)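 Each kinase domain, at 2 μM, is mixed with 20 μM test compound and SYPRO Orange in Hepes (20 mM, pH 7.5) with 500 mM NaCl. Temperature is then raised at 3°C/min and fluorescence-monitored unfolding yields the melting temperature change, ΔTm in degrees Celsius.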

The target in test [2] is T2, ~100 representative kinases (Homo sapiens, UniProt Q96L34).
T2 construct: Recombinant protein kinase domains with a concentration of 2 μM
T2 sequence (Q96L34 1-752): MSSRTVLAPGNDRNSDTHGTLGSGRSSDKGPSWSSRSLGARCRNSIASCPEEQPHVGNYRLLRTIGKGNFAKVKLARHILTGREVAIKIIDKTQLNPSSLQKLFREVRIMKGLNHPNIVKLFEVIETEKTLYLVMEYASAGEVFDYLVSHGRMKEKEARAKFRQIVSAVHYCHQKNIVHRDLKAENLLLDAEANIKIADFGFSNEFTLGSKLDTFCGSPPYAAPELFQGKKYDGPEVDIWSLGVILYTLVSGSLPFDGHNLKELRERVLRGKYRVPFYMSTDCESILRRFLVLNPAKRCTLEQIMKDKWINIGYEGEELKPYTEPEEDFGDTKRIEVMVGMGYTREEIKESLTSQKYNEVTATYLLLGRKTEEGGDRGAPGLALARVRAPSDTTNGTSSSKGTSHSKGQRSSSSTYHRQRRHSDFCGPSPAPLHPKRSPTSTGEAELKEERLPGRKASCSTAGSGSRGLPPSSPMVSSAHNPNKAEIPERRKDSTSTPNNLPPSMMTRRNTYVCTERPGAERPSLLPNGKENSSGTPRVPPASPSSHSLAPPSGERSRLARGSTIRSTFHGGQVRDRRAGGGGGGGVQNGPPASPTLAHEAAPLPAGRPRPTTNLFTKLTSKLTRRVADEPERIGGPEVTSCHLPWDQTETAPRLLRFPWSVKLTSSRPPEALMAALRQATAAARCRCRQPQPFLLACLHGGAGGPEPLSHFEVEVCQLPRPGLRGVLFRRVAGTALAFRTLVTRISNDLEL
The settings on record: protein MARK4; average of three replicates. The procedure, abridged: as §1

Test [3] has as its target T3, ~100 representative kinases (Homo sapiens, UniProt P52564).
T3 construct: Recombinant protein kinase domains with a concentration of 2 μM
T3 sequence (P52564 1-334): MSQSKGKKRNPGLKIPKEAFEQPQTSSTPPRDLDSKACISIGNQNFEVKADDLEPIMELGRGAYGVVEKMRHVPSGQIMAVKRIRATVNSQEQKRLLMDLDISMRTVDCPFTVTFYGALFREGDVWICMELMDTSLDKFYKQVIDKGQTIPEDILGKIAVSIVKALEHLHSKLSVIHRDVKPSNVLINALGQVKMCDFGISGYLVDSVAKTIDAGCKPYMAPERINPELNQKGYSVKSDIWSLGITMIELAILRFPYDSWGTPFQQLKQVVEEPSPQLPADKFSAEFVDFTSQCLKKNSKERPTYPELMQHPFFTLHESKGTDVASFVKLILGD
The following applies: protein MAP2K6; average of three replicates. The procedure, abridged:
as §1

Test [4] concerns the target T4, ~100 representative kinases (Homo sapiens, UniProt P49761).
T4 construct: Recombinant protein kinase domains with a concentration of 2 μM
The following applies: Protein CLK3; average of three replicates. The method, boiled down:
as §1

The target of test [5] is T5, ~100 representative kinases (Homo sapiens, UniProt P21675).
T5 construct: Recombinant protein kinase domains with a concentration of 2 μM
T5 sequence (P21675 whole entry, the tested form may be a part): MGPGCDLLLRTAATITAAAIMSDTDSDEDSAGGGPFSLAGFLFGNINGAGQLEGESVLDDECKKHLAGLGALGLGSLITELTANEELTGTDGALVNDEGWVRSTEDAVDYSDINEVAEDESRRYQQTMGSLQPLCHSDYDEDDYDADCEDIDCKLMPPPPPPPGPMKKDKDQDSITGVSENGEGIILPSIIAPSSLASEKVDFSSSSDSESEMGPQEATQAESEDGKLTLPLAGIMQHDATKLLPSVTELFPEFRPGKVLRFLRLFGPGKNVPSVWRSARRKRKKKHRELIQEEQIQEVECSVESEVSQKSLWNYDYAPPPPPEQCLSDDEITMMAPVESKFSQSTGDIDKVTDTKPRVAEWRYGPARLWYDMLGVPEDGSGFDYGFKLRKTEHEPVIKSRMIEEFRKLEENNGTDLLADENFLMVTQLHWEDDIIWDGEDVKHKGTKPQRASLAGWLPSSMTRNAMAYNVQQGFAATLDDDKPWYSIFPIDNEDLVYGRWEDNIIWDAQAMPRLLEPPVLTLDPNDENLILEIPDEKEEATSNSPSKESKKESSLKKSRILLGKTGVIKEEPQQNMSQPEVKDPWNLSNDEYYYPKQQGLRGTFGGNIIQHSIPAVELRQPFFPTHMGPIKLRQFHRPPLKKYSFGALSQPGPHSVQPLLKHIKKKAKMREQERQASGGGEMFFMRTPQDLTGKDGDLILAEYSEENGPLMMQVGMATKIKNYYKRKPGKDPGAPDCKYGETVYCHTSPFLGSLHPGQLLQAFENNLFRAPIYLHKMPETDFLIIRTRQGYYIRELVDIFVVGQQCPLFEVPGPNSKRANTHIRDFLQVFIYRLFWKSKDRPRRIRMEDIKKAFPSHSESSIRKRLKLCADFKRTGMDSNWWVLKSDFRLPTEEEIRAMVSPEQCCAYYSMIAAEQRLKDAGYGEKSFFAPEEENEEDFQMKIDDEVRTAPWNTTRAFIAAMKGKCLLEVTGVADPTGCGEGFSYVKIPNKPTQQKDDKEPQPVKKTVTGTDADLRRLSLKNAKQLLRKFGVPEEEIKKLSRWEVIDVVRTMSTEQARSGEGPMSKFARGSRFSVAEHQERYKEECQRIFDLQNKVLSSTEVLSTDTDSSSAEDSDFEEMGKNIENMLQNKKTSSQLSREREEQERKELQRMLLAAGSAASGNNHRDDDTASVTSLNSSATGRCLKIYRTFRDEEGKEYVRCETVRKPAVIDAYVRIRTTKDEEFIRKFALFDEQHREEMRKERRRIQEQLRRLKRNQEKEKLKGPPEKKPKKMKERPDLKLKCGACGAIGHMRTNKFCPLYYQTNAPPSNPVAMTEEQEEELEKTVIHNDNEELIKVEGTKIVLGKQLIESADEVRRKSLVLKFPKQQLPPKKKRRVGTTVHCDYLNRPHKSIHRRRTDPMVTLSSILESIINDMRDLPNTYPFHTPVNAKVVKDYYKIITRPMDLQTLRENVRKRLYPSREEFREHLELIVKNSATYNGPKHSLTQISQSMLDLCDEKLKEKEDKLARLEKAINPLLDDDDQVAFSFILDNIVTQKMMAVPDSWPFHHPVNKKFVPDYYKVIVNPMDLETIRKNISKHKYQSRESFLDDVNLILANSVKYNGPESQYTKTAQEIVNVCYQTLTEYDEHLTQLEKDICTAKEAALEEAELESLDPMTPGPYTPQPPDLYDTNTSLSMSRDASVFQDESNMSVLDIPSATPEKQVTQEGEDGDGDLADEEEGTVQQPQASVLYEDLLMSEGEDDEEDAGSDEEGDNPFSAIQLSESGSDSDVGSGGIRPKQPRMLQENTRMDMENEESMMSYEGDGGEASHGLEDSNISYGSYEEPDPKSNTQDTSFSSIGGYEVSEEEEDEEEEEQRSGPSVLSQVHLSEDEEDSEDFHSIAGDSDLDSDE
The settings on record: Protein TAF1; DSF; average of three replicates. The method, boiled down:
as §1

Test [6] addresses T6, ~100 representative kinases (Homo sapiens, UniProt Q13873).
T6 construct: Recombinant protein kinase domains with a concentration of 2 μM
T6 sequence (Q13873 27-1038): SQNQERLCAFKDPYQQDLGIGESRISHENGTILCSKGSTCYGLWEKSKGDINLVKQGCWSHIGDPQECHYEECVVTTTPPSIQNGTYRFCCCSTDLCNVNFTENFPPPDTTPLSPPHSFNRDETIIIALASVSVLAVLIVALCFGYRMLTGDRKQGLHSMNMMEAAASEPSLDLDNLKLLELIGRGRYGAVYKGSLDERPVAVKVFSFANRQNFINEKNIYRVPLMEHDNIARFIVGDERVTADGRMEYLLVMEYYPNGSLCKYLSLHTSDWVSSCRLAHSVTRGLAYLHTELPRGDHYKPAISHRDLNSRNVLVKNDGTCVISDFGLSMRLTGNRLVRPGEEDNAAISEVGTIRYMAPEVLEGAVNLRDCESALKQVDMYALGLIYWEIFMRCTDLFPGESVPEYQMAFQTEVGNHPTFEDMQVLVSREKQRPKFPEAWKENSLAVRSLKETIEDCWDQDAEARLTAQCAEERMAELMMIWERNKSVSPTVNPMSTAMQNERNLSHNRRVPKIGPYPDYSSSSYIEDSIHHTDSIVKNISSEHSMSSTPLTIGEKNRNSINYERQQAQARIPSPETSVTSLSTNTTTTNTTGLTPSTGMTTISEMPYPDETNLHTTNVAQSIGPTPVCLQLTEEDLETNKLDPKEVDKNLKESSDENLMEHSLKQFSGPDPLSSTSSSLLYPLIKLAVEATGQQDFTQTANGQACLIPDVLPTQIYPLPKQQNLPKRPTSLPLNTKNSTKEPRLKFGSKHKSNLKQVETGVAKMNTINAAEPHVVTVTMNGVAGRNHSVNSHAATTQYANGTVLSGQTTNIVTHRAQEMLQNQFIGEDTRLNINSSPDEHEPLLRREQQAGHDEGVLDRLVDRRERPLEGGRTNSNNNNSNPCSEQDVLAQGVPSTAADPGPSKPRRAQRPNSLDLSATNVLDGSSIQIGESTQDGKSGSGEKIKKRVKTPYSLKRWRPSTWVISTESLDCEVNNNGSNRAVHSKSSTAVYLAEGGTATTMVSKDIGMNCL
The settings on record: Protein BMPR2; average of three replicates. The method, boiled down: as §1

Each structure is given as a SMILES string.

T4 sequence (P49761 whole entry, the tested form may be a part): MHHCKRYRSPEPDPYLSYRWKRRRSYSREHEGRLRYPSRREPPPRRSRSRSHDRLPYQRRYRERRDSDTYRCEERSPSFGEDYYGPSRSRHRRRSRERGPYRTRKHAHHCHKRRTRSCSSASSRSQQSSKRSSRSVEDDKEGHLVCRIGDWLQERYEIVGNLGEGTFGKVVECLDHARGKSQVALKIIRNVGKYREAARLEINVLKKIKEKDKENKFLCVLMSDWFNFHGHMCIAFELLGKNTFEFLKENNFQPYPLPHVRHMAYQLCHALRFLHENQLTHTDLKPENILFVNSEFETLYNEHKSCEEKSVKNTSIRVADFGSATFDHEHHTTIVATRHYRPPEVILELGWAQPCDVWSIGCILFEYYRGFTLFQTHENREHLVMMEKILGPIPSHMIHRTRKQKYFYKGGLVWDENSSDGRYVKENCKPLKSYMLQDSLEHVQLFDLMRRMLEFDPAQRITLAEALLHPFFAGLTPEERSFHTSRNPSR

Turning to `O=C(Nc1cccc(-c2c[nH]c3ncnc(N4CCOCC4)c23)c1)C1(C(=O)Nc2ccc(F)c(Br)c2)CC1` [Compound 19], the dTm in test [1] is recorded as 11.96 K; in test [2], 5.43 K; in test [3] it was 3.38 K; in test [4], 5.09 K; in test [5], 0.00 K; in test [6] it was -0.62 K.
`COc1cc(NC(=O)C2(C(=O)Nc3cccc(-c4c[nH]c5ncnc(N6CCOCC6)c45)c3)CC2)ccc1F` [Compound 21]: the dTm in test [1] was 11.57 K; in test [2] it was 4.12 K; in test [3], 3.07 K; in test [4], 3.11 K; in test [5], 0.37 K; in test [6], 0.78 K.
Regarding `Cc1cc(NC(=O)C2(C(=O)Nc3cccc(-c4c[nH]c5ncnc(N6CCOCC6)c45)c3)CC2)ccc1F` [Compound 20], the dTm in test [1] was determined as 13.05 K; in test [2], 6.75 K; in test [3] it was 3.64 K; in test [4], 5.99 K; in test [5], 0.99 K; in test [6], 1.32 K.
Take `O=C(Nc1cccc(-c2c[nH]c3ncnc(N4CCOCC4)c23)c1)C1(C(=O)Nc2ccc(F)cc2F)CC1` [Compound 23]: the dTm in test [1] is given as 7.48 K; in test [2], 2.83 K; in test [3] it was 1.78 K; in test [4], 1.58 K; in test [5], 0.59 K; in test [6], 0.82 K.
On to `Cc1ccc(-n2nc(C(C)(C)C)cc2NC(=O)Nc2cccc(-c3c[nH]c4ncnc(N5CCOCC5)c34)c2)cc1` [Compound 29], for which the dTm in test [1] is given as 18.71 K; in test [2], 3.91 K; in test [3], 2.48 K; in test [4] it was 14.57 K; in test [5] it was -10.70 K; in test [6], 0.97 K.
Turning to `Cc1ccc(NC(=O)C2(C(=O)Nc3cccc(-c4c[nH]c5ncnc(N6CCOCC6)c45)c3)CC2)cc1` [Compound 14], the dTm in test [1] stood at 9.07 K; in test [2] it was 3.97 K; in test [3], 1.56 K; in test [4] it was 2.40 K; in test [5], 0.34 K; in test [6], 1.10 K.
